Measurements published in article PMC6695453, “Peptide translocation by the lysosomal ABC transporter TAPL is regulated by coupling efficiency and activation energy” (Scientific Reports, 2019).

Assays:
PatA/PatB = conditions: transport and NTP hydrolysis, 37 °C; cited from earlier work
Excerpt: Both nucleotides show the same Km and kcat values in respect of NTP hydrolysis. […] NTP dependent transport was found also for other ABC transporters. […] The full-length ABC transport Pdr5 from yeast hydrolyzes GTP and even UTP, but ...

TAPL = molecular target: T1, TAPL (Homo sapiens, UniProt Q9NP78); conditions: GTP vs ATP; cited from earlier work
T1 construct: Human coreTAPL (Q9NP78 UniProt, amino acid 143–766) fused C-terminally to mVenus; made in house; host or cells: Pichia pastoris SMD1168-His+
T1 sequence (Q9NP78 143-766): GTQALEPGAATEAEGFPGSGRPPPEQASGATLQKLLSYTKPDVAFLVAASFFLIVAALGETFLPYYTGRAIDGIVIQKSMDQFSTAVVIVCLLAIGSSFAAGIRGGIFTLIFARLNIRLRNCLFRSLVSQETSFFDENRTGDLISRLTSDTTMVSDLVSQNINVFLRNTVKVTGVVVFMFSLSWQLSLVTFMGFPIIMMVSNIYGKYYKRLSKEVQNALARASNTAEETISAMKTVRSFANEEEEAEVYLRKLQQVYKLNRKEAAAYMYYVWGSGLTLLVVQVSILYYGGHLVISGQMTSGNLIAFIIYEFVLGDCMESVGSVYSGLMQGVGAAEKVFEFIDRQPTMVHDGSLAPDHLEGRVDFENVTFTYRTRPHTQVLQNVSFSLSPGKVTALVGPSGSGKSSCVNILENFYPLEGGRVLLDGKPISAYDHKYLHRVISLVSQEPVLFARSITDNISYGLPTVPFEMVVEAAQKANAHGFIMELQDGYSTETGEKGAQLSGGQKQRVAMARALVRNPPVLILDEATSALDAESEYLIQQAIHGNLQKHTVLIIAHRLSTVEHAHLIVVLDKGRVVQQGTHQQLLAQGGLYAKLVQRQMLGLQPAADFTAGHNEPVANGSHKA
Excerpt: To decipher the coupling between nucleotide hydrolysis and peptide transport, we intended to reduce futile hydrolysis cycles without translocating peptides. Assuming a kinetic effect where ATP binding and subsequent ATP hydrolysis is much faster than peptide binding, a more stoichiometric coupling should be obtained with decreasing ATP concentrations. Therefore, we determined Michaelis-Menten kinetics of nucleotide hydrolysis and peptide transport with decreasing nucleotide concentrations. For sensitivity reasons, we switched from the colorimetric malachite green based assay to a radioactive b ...

TmrAB = TmrAB (Thermus thermophilus, UniProt Q72J04+Q72J05); assay: NTP dependent peptide transport by TmrAB; conditions: 68 °C, 9-mer^FL peptide
P-gp = conditions: cited from earlier work
Excerpt: Other ABC transporters like P-glycoprotein have a biphasic substrate dependent ATPase activity. […] Basal ATPase activity of MRP1 is 3-fold stimulated by its substrate leucotriene C4, which forms contacts to both halfs o ...

Compound | nucleotide preference of PatA/PatB (in words) (PatA/PatB) | fuelling of peptide transport vs ATP (in words) (TAPL) | fold decreased transport rate for GTP compared to ATP, TmrAB (TmrAB) [fold] | effect on P-gp transport and ATP hydrolysis (in words) (P-gp)
Nc1nc2c(ncn2[C@@H]2O[C@H](COP(=O)(O)OP(=O)(O)OP(=O)(O)O)[C@@H](O)[C@H]2O)c(=O)[nH]1 [GTP] | strongly prefers GTP over ATP | to a lower extend than ATP | 6 | –
O[C@@H](COc1cccc2ncccc12)CN1CCN([C@@H]2c3ccccc3[C@@H]3[C@H](c4ccccc42)C3(F)F)CC1 [Zosuquidar] | – | – | – | inhibits transport but stimulates ATP hydrolysis
